This note sets out measurements from ChEMBL document CHEMBL1124909 (J Med Chem, 1990).

Holding throughout (format): functional
Conditions in all cases: 720 h

In test [1] the test system is Mus musculus. The test is described as follows: The percentage 30-day survival of the mice at 600 mg/kg dose, with the radiation dose of 10 GY.
In test [2] the test system is Mus musculus. Put plainly: The percentage 30-day survival of the mice at 75 mg/kg dose, with the radiation dose of 10 Gy.
In test [3] the test system is Mus musculus. Put plainly: The percentage 30-day survival of the mice at 150 mg/kg dose, with the radiation dose of 10 Gy.
Test [4] has as its system Mus musculus. The test is described as follows: The percentage 30-day survival of the mice at 300 mg/kg dose, with the radiation dose of 10 GY.

For the compound `NCCCNCCSP(=O)(O)O` [AMIFOSTINE], the survival at 600 mg/kg in test [1] came to 100%. In addition, the survival at 75 mg/kg in test [2] came out at 40%. This compound gave a survival at 150 mg/kg in test [3] of 40%. Besides, the survival at 300 mg/kg in test [4] stood at 100%.
